Source: patent publication US11999676B2, “Vesicular monoamine transporter-2 ligands and their use in the treatment of psychostimulant abuse” (priority 2016, dated 2024)

Columns and labels:
[1] = Microsomal stability assay, human liver microsomes; details: for CLint scaled at 0.08 µM / half-life at 0.08 µM: both, human, pooled liver microsomes; for CLint scaled at 0.08 µM: pH 7.4, Microsomal stability assays: Clearance; for half-life at 0.08 µM: pH 7.4, Microsomal stability assays: Half-life
Experimental: (§1) Each plate holds triplicate samples of two controls (0.4 mM) and up to 14 compounds (0.08 mM) in rat and human liver microsomes. Aliquots of each well of the plate (175 μl of each well) were transferred from the master plate into 5 assay plates. For 0-hr time point, pre-cooled (4° C.) internal standard (437.5 μL, 2 μM caffeine in methanol) was added to the first plate before the reaction starts. NADPH regenerating system solution A (6.05 ml, Fisher Scientific, #NC9255727) was combined with NADPH regenerating system solution B (1.21 ml, Fisher Scientific, #NC9016235) in potassium phosphate buffer (15.8 ml, 0.1 M, pH 7.4, 37° C.). The resulting NADPH solution (43.8 μl) was added to each well of all the 96-well assay plates and mixed with pipette briefly making the final protein and compound concentrations respectively: 0.5 mg/ml, 0.08 μM (0.4 μM for controls). Plates were sealed, and all plates except the 0-hr plate were incubated at 37° C., shaken at a speed of 60 rpm. A single assay plate was tested at each time point: 0.5 hr, 1 hr, 2 hr, and 4 hr. At each time point, 437.5 μL of pre-cooled internal standard was added each well of the plate to quench the reaction. […] 120 μl supernatant was transferred to a 96-well plate, centrifuged again and analyzed by UPLC-MS (Waters Inc., Milford, MA). The compounds and internal standard were detected by selected ion recording (SIR).
(§2) The amount of material was measured as a ratio of peak area to the internal standard and graphed. Using the slope from the initial linear portion of this curve, the degradation rate constant is calculated using equation [1].

VMAT2 = VMAT2 (Rattus norvegicus (Rat), UniProt Q01827); assay: [3H]Dopamine ([3H]DA) uptake assay, vesicular preparation; type: biochemical; details: [3H]DA uptake, rat; read-out: VMAT2 (rat) Inhibition: Mean Ki ± Standard Deviation
hERG channel = hERG channel (Homo sapiens (Human), UniProt Q12809); assay: [3H]Dofetilide binding assay, HEK-293 cell membrane preparation; details: [3H]dofetilide, HEK-293 cell membranes; read-out: hERG Binding: Mean Ki ± Standard Deviation
Experimental: [^3H]Dofetilide binding assays were conducted using commercially available HEK-293 cell membranes which stably express the hERG channel. Membranes were suspended in assay buffer (50 mM Tris, 10 mM KCl, 1 mM MgCl2, pH 7.4) prior to the experiment. […] Aliquots of the HEK-293 cell membrane suspension which contained 5 μg membrane protein were added to tubes containing assay buffer, 5 nM [^3H]dofetilide and a range of concentrations of analog (10 nM-100 μM). Nonspecific binding was determined in the presence of amitriptyline (1 mM). Samples were incubated for 1 hr. at 24° C., followed by rapid filtration. […] The affinity for the [^3H]dofetilide binding site on the hERG channel expressed in the HEK-293 cellular membrane was determined from the analog concentration response curves.

[2] = Microsomal stability assay, rat liver microsomes; details: for CLint scaled at 0.08 µM / half-life at 0.08 µM: female, Sprague-Dawley, rat, liver microsomes; for CLint scaled at 0.08 µM: pH 7.4, Microsomal stability assays: Clearance; for half-life at 0.08 µM: pH 7.4, Microsomal stability assays: Half-life
Experimental: as §1, §2

Chain of hERG channel (Q12809 whole entry): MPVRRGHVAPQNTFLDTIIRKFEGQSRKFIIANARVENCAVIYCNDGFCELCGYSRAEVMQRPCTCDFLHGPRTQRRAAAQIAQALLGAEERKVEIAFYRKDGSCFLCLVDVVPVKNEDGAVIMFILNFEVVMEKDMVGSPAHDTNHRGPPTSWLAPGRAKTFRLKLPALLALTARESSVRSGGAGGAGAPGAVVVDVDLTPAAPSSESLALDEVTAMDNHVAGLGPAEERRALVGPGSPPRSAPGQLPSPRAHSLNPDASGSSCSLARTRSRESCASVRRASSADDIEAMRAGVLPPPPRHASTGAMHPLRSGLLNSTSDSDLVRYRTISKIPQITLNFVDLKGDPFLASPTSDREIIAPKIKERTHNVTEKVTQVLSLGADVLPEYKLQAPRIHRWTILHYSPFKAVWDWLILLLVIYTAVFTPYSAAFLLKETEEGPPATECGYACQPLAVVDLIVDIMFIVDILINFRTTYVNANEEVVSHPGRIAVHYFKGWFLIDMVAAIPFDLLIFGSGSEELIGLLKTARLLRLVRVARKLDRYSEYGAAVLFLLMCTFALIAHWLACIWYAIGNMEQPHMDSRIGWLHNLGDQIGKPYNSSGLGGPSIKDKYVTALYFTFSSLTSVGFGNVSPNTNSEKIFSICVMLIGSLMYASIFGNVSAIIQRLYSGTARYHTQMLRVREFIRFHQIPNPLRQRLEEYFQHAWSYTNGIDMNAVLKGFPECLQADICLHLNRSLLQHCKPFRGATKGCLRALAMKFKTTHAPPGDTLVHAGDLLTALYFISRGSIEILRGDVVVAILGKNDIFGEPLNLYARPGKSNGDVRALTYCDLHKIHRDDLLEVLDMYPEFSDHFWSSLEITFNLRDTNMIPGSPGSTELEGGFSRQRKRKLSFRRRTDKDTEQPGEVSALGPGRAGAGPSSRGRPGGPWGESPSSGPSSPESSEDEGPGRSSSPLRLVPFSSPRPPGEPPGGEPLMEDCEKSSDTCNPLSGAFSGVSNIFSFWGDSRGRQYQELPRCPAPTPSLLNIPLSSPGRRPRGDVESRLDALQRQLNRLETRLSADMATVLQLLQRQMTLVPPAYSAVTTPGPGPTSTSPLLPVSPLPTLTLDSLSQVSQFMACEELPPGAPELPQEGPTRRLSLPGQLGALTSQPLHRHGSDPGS

| SMILES | CLint scaled at 0.08 µM [1] [mL/min/kg] | half-life at 0.08 µM [1] [min] | Ki (VMAT2) [µM] | also measured |
| --- | --- | --- | --- | --- |
| CC(Cc1ccncc1)NCCCc1ccc(O)cc1 (stereo not shown) [Compound 179] | < 5.2 | > 240 |  |  |
| CC(C)C(Cc1ccc(F)cc1)NCCCc1ccc(Br)cc1 (stereo not shown) [Compound 140] | 14.4 | 84 | 0.132 ± 0.0295 |  |
| CC(Cc1ccc(F)cc1)NCCCn1cccn1 (stereo not shown) [Compound 133] | < 5.2 | > 240 |  |  |
| CC(Cc1ccc(F)cc1)NCCCc1ccc(I)cc1 (stereo not shown) [Compound 183] | < 5.2 | > 240 |  |  |
| CC(Cc1ccc(Br)cc1)NCCCc1ccc(F)cc1 (stereo not shown) [Compound 201] | < 5.2 | > 240 |  |  |
| CC(Cc1ccc([N+](=O)[O-])cc1)NCCCc1ccc(Cl)cc1 (stereo not shown) [Compound 125] |  |  | 0.00858 ± 0.00371 | Ki (hERG channel): 0.082 ± 0.0127 µM |
| CC(Cc1ccc(C(F)(F)F)cc1)NCCCc1ccc(O)cc1 (stereo not shown) [Compound 209] |  |  | 0.0171 ± 0.00686 | Ki (hERG channel): 0.252 ± 0.109 µM |
| CCC(Cc1ccccc1)NCCCc1ccc(O)cc1 (stereo not shown) [Compound 208] | > 400 | < 6 |  |  |
| OCC(Cc1ccc(F)cc1)NCCCc1ccc(F)cc1 (stereo not shown) [Compound 147] |  |  | 0.0301 ± 0.0142 | Ki (hERG channel): 1.15 ± 0.417 µM |
| CC(Cc1ccccc1)NCCCc1ccc(-c2cncnc2)cc1 (stereo not shown) [Compound 202] | 155 |  | 0.119 ± 0.0318 | Microsomal stability assays: Half-life [1]: 6 min |
| FCC(Cc1ccc(Br)cc1)NCCCc1ccc(F)cc1 (stereo not shown) [Compound 86] | 18.1 | 66 |  |  |
| Nc1ccc(CCCNC(CF)Cc2ccc(F)cc2)cc1 (stereo not shown) [Compound 107] |  |  | 0.105 ± 0.000189 | CLint scaled at 0.08 µM [2]: 82.2 mL/min/kg; half-life at 0.08 µM [2]: 36 min |
| CC(Cc1ccc(C(F)(F)F)cc1)NCCCc1ccc(N)cc1 (stereo not shown) [Compound 54] |  |  | 0.0618 ± 0.00169 | Ki (hERG channel): 0.908 ± 0.102 µM |
| CC(Cc1ccc(Br)cc1)NCCCc1ccc(Cl)cc1 (stereo not shown) [Compound 185] | < 5.2 | > 240 |  |  |
| CCOC(=O)c1ccc(CCCNC(C)Cc2ccc(F)cc2)cc1 (stereo not shown) [Compound 159] | 216 |  |  | Microsomal stability assays: Half-life [1]: 6 min |
| CC(Cc1ccc(NC=O)cc1)N(C=O)CCCc1ccc(F)cc1 (stereo not shown) [Compound 74] |  |  | 0.00882 ± 0.00205 | Ki (hERG channel): 0.831 ± 0.187 µM |
| COc1ccc(CCC(C)NC(C)Cc2ccccc2)cc1 (stereo not shown) [Compound 198] |  |  | 0.152 ± 0.0256 | Microsomal stability assays: Half-life [2]: 6 min; CLint scaled at 0.08 µM [2]: 414 mL/min/kg |
| CC(Cc1ccc(F)cc1)NCCCc1c[nH]c2ccccc12 (stereo not shown) [Compound 92] | 112 | 12 |  |  |
| FCC(Cc1ccc(F)cc1)NCCCc1ccc(F)cc1 (stereo not shown) [Compound 153] | 20.5 | 60 |  |  |
| CC(Cc1ccc(F)cc1)NCCCc1ccc(N)cc1 (stereo not shown) [Compound 95] | 12.9 | 96 |  |  |
| CC(Cc1ccc(F)cc1)NCCCc1ccc([N+](=O)[O-])cc1 (stereo not shown) [Compound 161] | < 5.2 | > 240 |  |  |
| CC(Cc1ccc(F)c(F)c1)NCCCc1ccc(N)cc1 (stereo not shown) [Compound 61] | 9.6 | 132 |  |  |
| FCC(Cc1ccc(F)cc1)NCCCc1ccccc1 (stereo not shown) [Compound 100] |  |  | 0.0512 ± 0.012 | Ki (hERG channel): 7.39 ± 1.36 µM |
| CC(Cc1ccc(Br)cc1)NCCCc1ccncc1 (stereo not shown) [Compound 175] | < 5.2 | > 240 |  |  |
| COc1ccc(CC(C)NCCCc2ccc(N)cc2)cc1 (stereo not shown) [Compound 57] |  |  | 0.0689 ± 0.0133 | Ki (hERG channel): 4.25 ± 0.22 µM |
| CC(Cc1ccc(-c2cccnc2)cc1)NCCCc1ccc(F)cc1 (stereo not shown) [Compound 193] | 144 |  |  | Microsomal stability assays: Half-life [1]: 6 min |
| CC(Cc1ccc(F)cc1)NCCCn1ccnc1 (stereo not shown) [Compound 134] | < 5.2 | > 240 | 0.517 ± 0.112 |  |

| SMILES | CLint scaled at 0.08 µM [1] [mL/min/kg] | half-life at 0.08 µM [1] [min] | Ki (VMAT2) [µM] | also measured |
| --- | --- | --- | --- | --- |
| CC(Cc1ccc(F)cc1)NCCCc1ccc(N(C)C)cc1 (stereo not shown) [Compound 156] | 182 |  | 0.118 ± 0.0258 | Microsomal stability assays: Half-life [1]: 6 min |
| CC(Cc1ccccc1)NCCCc1ccc(-c2cccnc2)cc1 (stereo not shown) [Compound 211] | > 400 | < 6 |  |  |
| CC(Cc1ccccc1)NCCCc1ccc(C(F)(F)F)cc1 (stereo not shown) [Compound 195] | < 5.2 | > 240 |  |  |
| COc1ccc(CCC(C)NC(C)Cc2ccccc2)cc1 (stereo not shown) [Compound 199] | > 400 | < 6 |  |  |
| CC(Cc1ccc(-c2cncnc2)cc1)NCCCc1ccc(F)cc1 (stereo not shown) [Compound 197] | 40.4 | 30 |  |  |
| CC(Cc1ccc([N+](=O)[O-])cc1)NCCCc1ccccc1 (stereo not shown) [Compound 116] |  |  |  | CLint scaled at 0.08 µM [2]: > 400 mL/min/kg; half-life at 0.08 µM [2]: < 6 min |
| OCC(Cc1ccc(F)cc1)NCCCc1ccncc1 (stereo not shown) [Compound 128] |  |  |  | CLint scaled at 0.08 µM [2]: < 10 mL/min/kg; half-life at 0.08 µM [2]: > 240 min |
| COc1ccc(CCCNC(C)Cc2ccncc2)cc1 (stereo not shown) [Compound 172] | 42.9 | 30 | 0.186 ± 0.127 |  |
| CC(Cc1ccc(F)cc1)NCCCc1ccc(S(C)(=O)=O)cc1 (stereo not shown) [Compound 138] | < 5.2 | > 240 | 0.146 ± 0.0419 |  |
| CC(Cc1ccc(F)cc1)NCCCc1ccncc1 (stereo not shown) [Compound 177] | < 5.2 | > 240 |  |  |
| CC(Cc1ccc(F)cc1)NCCCn1cccn1 (stereo not shown) [Compound 132] |  |  | 0.709 ± 0.172 | CLint scaled at 0.08 µM [2]: 180 mL/min/kg; half-life at 0.08 µM [2]: 18 min |
| CC(Cc1ccc(Br)cc1)NCCCc1ccc(I)cc1 (stereo not shown) [Compound 181] | < 5.2 | > 240 |  |  |
| CC(Cc1ccc([N+](=O)[O-])cc1)NCCCc1ccncc1 (stereo not shown) [Compound 113] | 6.3 | 198 | 0.157 ± 0.0725 |  |
| CC(Cc1ccncc1)NCCCc1ccc(F)cc1 (stereo not shown) [Compound 187] |  |  |  | CLint scaled at 0.08 µM [2]: 150 mL/min/kg; half-life at 0.08 µM [2]: 18 min |
| CC(Cc1ccc(-c2cncnc2)cc1)NCCCc1ccc(Cl)cc1 (stereo not shown) [Compound 171] | 75.2 | 18 |  |  |
| FCC(Cc1ccccc1)NCCCc1ccccc1 (stereo not shown) [Compound 99] | 119 | 12 |  |  |
| CC(=O)Nc1ccc(CCCNC(C)Cc2ccc(F)cc2)cc1 (stereo not shown) [Compound 67] | < 10 | > 240 |  |  |
| Nc1ccc(CCCNC(CF)Cc2ccc(F)cc2)cc1 (stereo not shown) [Compound 108] | 9.6 | 132 |  |  |
| FCC(Cc1ccc(F)cc1)NCCCc1ccc(Cl)cc1 (stereo not shown) [Compound 151] | 22.6 | 54 |  |  |
| CC(Cc1ccc([N+](=O)[O-])cc1)NCCCc1ccc(Br)cc1 (stereo not shown) [Compound 122] |  |  |  | CLint scaled at 0.08 µM [2]: > 400 mL/min/kg; half-life at 0.08 µM [2]: < 6 min |
| CC(Cc1ccc(F)c(F)c1)NCCCc1ccncc1 (stereo not shown) [Compound 97] | 11.9 | 102 |  |  |
| CC(Cc1ccccc1)NCCCc1ccncc1 (stereo not shown) [Compound 205] |  |  |  | CLint scaled at 0.08 µM [2]: 90.6 mL/min/kg; half-life at 0.08 µM [2]: 30 min |
| CC(Cc1ccc(Cl)cc1)NCCCc1ccc(N)cc1 (stereo not shown) [Compound 63] | 11.6 | 108 |  |  |
| CC(Cc1ccc(F)cc1)NCCCc1ccc(F)cc1 (stereo not shown) [Compound 191] |  |  |  | CLint scaled at 0.08 µM [2]: 195 mL/min/kg; half-life at 0.08 µM [2]: 12 min |
| CC(Cc1ccc(N)cc1)NCCCc1ccccc1 (stereo not shown) [Compound 106] |  |  |  | CLint scaled at 0.08 µM [2]: 17.9 mL/min/kg; half-life at 0.08 µM [2]: 156 min |
| FCC(Cc1ccccc1)NCCCc1ccc(F)cc1 (stereo not shown) [Compound 102] | 33.9 | 36 |  |  |
| CC(Cc1ccc(F)cc1)NCCCc1ccc2[nH]ccc2c1 (stereo not shown) [Compound 56] | 106 | 12 |  |  |
